Series [1] has as its system IL-17 release from CD4+ T cells. Put plainly: Cytokine IL-17 estimation by HTRF, IL-17 release from CD4+ T cells. It counts as cell-based. To be noted: Homo sapiens.
Series [2] is described as follows: Rat pharmacokinetics, intravenous bolus and oral gavage. Format: in vivo, male Sprague Dawley rats. To be noted: plasma. The protocol:
The bio-availability and pharmacokinetics of some compounds of the present invention were examined in male Sprague Dawley rats. A total of 6 male rats were used in the study. The study was performed using parallel design (n=3) with serial sampling.
Dose formulations were prepared on the day of doing. Blood samples were collected at 0.083 (only IV), 0.25, 0.5, 1, 2, 4, 8 and 24 h post-dose. At each time point, approximately 0.2 mL of blood was withdrawn from each cannulated rat through jugular vein and transferred to a pre-labeled microfuge tube containing 20 μL of […] K2EDTA per mL of blood. Following collection of blood sample, equal volume of heparinized saline was flushed into jugular vein of rat. The blood samples were centrifuged at 5000 g for 5 min at 4±2° C. The plasma was separated within 30 min of scheduled time and stored below −60° C. until bio-analysis. The plasma samples were analyzed for selected test EXAMPLES using a fixed-for purpose liquid chromatographic tandem mass spectrometric detection (LC-MS/MS) method with a lower limit of quantification of 2.21 ng/mL. The pharmacokinetic parameters for select EXAMPLES were calculated using the non-compartmental analysis tool of validated WinNonlin® software (Version 5.2).
Pharmacokinetic parameters (mean±SD; n=3) of 7 following intravenous bolus and oral gavage administration of 7 solution in male Sprague Dawley rats are shown in TABLE 4 below: […]

The target of the next series is T1, RORγt (Homo sapiens, UniProt P51449).
T1 construct: host or cells: IL-17A Prom/LUCPorter HEK 293 cell line (IMGENEX, IML-301)
T1 sequence (P51449 1-497 isoform P51449-2): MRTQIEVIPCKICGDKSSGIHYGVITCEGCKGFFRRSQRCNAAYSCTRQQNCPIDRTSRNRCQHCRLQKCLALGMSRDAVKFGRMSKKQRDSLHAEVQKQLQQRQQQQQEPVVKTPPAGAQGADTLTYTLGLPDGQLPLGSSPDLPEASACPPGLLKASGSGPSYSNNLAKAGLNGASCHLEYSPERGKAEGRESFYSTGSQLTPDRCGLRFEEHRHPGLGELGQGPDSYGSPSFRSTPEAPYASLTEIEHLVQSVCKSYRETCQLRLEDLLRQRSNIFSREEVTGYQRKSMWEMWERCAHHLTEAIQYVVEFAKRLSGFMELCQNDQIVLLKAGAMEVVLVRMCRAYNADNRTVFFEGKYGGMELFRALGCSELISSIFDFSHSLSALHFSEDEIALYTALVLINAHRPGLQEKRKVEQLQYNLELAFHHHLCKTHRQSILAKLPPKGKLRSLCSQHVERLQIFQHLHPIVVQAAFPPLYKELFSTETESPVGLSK
Put plainly: RORγt-activated IL-17A Prom/LUCPorter HEK 293 cells luciferase reporter assay. Format: cell-based. To be noted: IL-17A Prom/LUCPorter HEK 293 cells transfected with RORγt, 16 h; read-out: RORγt Cell Specific.

The next series deals with T2, RORγ-LBD (RORγt) (Homo sapiens, UniProt P51449).
T2 construct: the 6-His-(GST) RORγ-LBD was used which expressed and purified from baculovirus infected Sf-21 insect cells; made in house; host or cells: baculovirus-infected Sf-21 insect cells
T2 sequence (P51449 269-508 limits assumed): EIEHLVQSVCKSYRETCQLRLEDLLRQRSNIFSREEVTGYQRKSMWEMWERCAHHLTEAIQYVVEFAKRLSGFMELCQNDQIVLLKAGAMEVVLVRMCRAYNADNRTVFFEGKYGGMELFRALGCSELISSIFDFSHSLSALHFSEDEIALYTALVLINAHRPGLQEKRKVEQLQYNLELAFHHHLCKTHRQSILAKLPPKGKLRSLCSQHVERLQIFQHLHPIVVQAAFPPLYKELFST
The series can be described thus: TR-FRET RORγt Binding Assay. To be noted: 6-His(GST)RORγ-LBD, SRC1_2 peptide, read-out: RORγt Binding. In general terms: TR-FRET usually uses a lanthanide donor and a delayed reading to cut background.

The subject of a further series is IL-17 production. The series can be described thus: Anti-CD3e antibody induced CD4+ T cell cytokine IL-17 production in male BALB/c mice (serum ELISA). It counts as in vivo, mouse. To be noted: Dexamethasone treatment; serum at 1.5 h after anti-CD3e antibody. How it is done: Efficacy of substituted 2, 3-dihydro-1H-inden-1-one containing selected compounds on Inhibition of Anti-CD3e Antibody induced CD4^+ T cell Cytokine-IL-17 Production in Male BALB/c Mice
A quantitative analysis of mouse IL-17 sandwich ELISA was conducted from the collected serum samples (Mouse IL-17 ELISA Ready-DuoSet ELISA kit, from R&D Systems, USA). The serum samples tested were collected from mice after 1.5 h of anti-CD3e antibody challenge, before antibody challenge, the mice were treated with different doses of test compounds or Dexamethasone as mentioned above in experimental design. The capture antibody was diluted in coating buffer (1×PBS) and transferred into each well. The plate was sealed and incubated overnight at RT. The following day the wells of the plate were aspirated and washed (3 times), allowing a one minute soak time in each step. The plate was blocked using 1% BSA in PBS, sealed, and incubated in ambient conditions for not less than one hour. After the incubation period, the plate was washed as described above, and the standards and serum samples were added to the appropriate wells and incubated for two hours at RT. […] The plate was read at 450/570 nm using the Microplate Absorbance Reader (SpectraMax; M3). […] Percent inhibition of cytokine production was calculated for all groups compared to positive control.

Where [3] appears, read: IL-17 release from CD4+ T cells, HTRF, read-out: IL-17 Inhibition.
The mark [4] stands for this setting: IV 2 mg/kg, solution, male Sprague Dawley rats, mean±SD n=3.
Setting [5] is: PO 10 mg/kg, solution, male Sprague Dawley rats, mean±SD n=3.

Like-named read-outs stand apart in the source and are kept apart here.

In general, bioavailability refers to the share of a dose that reaches the circulation, judged against a reference dose that is usually intravenous. One may read the AUC(0-inf) as the area under the concentration-time curve extrapolated to infinity. A low value points to low exposure. What is called AUC(0-t) is exposure summed from dosing to a finite time, without extrapolation to infinity. Lower therefore signals low exposure. One may read the half-life as how long it takes for the measured level to halve. Low values mean rapid decline, high ones slow decline. Broadly, the Cmax is the peak of the concentration-time curve. The term Tmax denotes the time from dosing to the highest level. Turning to `COc1cc2c(cc1N1CCOCC1)CC(Cc1cccc(OC(F)(F)F)c1)C2=O` (stereo not drawn) [compound 31, 6-methoxy-5-morpholino-2-(3-(trifluoromethoxy)benzyl)-2,3-dihydro-1H-inden-1-one], the IC50 in series [1] (setting [3]) was greater than 1000 nM. In addition, in series [2] (male, Sprague Dawley, PO 10 mg/kg vs IV 2 mg/kg, AUCinf and nominal doses used, read-out: F (bioavailability)), the bioavailability worked out at 19%. In series [2] (setting [4]), this compound gave a total exposure AUC(0-inf) of 589 ± 63.9 ng·h/mL, an area under the curve AUC(0-t) of 572 ± 57.4 ng·h/mL, a clearance of 57 ± 5.85 mL/min/kg and a half-life of 6.63 ± 4.92 h. For the same compound, the Cmax in series [2] (IV 2 mg/kg, solution, male Sprague Dawley rats, mean±SD n=3, footnote b: back extrapolated concentration at time zero) is 1940 ± 482 ng/mL. In series [2] (setting [5]), the AUC(0-inf) amounted to 558 ± 125 ng·h/mL, the AUC(0-t) was determined as 553 ± 124 ng·h/mL and the highest level (Cmax) was 176 ± 22.7 ng/mL. Also, the Tmax in series [2] (PO 10 mg/kg, solution, male Sprague Dawley rats, median (min-max)) amounted to 2 h. Also, the IC50 on RORγt is greater than 10000 nM. Moreover, at RORγ-LBD (RORγt), the IC50 was greater than 1000 nM.

With `COc1cc2c(cc1O)C(=O)C(Cc1ccc(SC(F)(F)F)cc1)C2` (stereo not drawn) [compound 187], the values for the IC50 (in series [1] (setting [3]); on RORγt; on RORγ-LBD (RORγt)) were less than 500 nM, greater than 1000 nM and greater than 1000 nM, respectively.

As for `COc1cc2c(cc1N1CCOCC1)CC(Cc1ccc(F)cc1F)C2=O` (stereo not drawn) [compound 28, 2-(2,4-difluorobenzyl)-6-methoxy-5-morpholino-2,3-dihydro-1H-inden-1-one], the IC50 is greater than 1000 nM in series [1] (setting [3]), greater than 10000 nM on RORγt and greater than 1000 nM on RORγ-LBD (RORγt).

For the compound `COc1cc2c(cc1N1CCOCC1)CC(Cc1cc(Cl)cc(C(F)(F)F)c1)C2=O` (stereo not drawn) [compound 50, 2-(3-chloro-5-(trifluoromethyl)benzyl)-6-methoxy-5-morpholino-2,3-dihydro-1H-inden-1-one], the IC50 in series [1] (setting [3]) was greater than 1000 nM; at RORγt it was greater than 1000 nM; on RORγ-LBD (RORγt), less than 500 nM.

For `COc1cc2c(cc1N1CCOCC1)CC(Cc1cc(C(F)(F)F)cnc1Cl)C2=O` (stereo not drawn) [compound 62, 2-((2-chloro-5-(trifluoromethyl)pyridin-3-yl)methyl)-6-methoxy-5-morpholino-2,3-dihydro-1H-inden-1-one], the IC50 is less than 500 nM in series [1] (read-out: IL-17 Inhibition), greater than 1000 nM at RORγt and greater than 1000 nM on RORγ-LBD (RORγt).

As to `COc1cc2c(cc1N1CCOCC1)CC(Cc1cccc(C(F)(F)F)c1F)C2=O` (stereo not drawn) [compound 80], the IC50 (in series [1] (setting [3]); on RORγt; on RORγ-LBD (RORγt)) was greater than 1000 nM throughout.

`C[C@@H]1C[C@H]2[C@@H]3CCC4=CC(=O)C=C[C@]4(C)[C@@]3(F)[C@@H](O)C[C@]2(C)[C@@]1(O)C(=O)CO` [Dexamethasone, reference compound]: the IC50 in series [1] (CD4+ T lymphocytes, HTRF, standards, read-out: IC50 of IL-17 inhibition (assay standards)) was 14 nM. Besides, the “reduction in IL-17 production compared to positive control group” value with IL-17 production is on record as 94%.

The record behind these values is US9446047B2, “Substituted 2,3-dihydro-1H-inden-1-one retinoic acid-related orphan nuclear receptor antagonists for treating multiple sclerosis” (Arrien Pharmaceuticals LLC, priority 2013, dated 2016).
